# Reference: patent US10640495B2, “Heterocycle derivatives having TrkA inhibitory activity” (Shionogi & Co., Ltd., priority 2015, dated 2020)
# Target: human TrkA (Homo sapiens (Human), UniProt P04629)
# Experiment: Human TrkA inhibition assay (Test Example 2)
# Type: biochemical
# Conditions: Table 152, human TrkA inhibition; read-out: IC50_nM
# In short: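 Recombinant TrkA (1 nmol/L) was preincubated 15 min at room temperature with compound in HEPES/MgCl2/DTT buffer, then reacted with FL-peptide 27 (1.5 μmol/L) and ATP (500 μmol/L) for 120 min at 37 °C. After EDTA stop, substrate phosphorylation was read by microfluidic mobility shift. IC50 came from logistic regression over 3-fold dilution series.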
# human TrkA, sequence (P04629 440-796): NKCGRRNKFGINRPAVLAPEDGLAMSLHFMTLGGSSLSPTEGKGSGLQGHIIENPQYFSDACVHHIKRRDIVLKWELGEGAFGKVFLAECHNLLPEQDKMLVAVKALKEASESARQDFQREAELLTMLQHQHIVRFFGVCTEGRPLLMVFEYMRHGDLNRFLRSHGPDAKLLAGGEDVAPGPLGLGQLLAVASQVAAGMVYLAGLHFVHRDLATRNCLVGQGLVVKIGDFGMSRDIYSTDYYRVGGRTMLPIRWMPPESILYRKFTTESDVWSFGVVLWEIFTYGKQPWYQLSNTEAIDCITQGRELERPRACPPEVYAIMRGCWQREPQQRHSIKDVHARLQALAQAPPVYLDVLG
row,IC50,Compound
1,< 100 nM,COCCC1C[C@@H](NC(=O)Nc2c(C)c(-c3ccc4c(cnn4C)c3)nn2-c2ccccc2)[C@H](c2ccccc2)O1 (some centres unmarked) [Compound I-11]
2,< 100 nM,COCCC1C[C@@H](NC(=O)Nc2c(C)c(-c3ccc(C(=O)OC(C)(C)C)cc3)nn2-c2ccccc2)[C@H](c2ccccc2)O1 (some centres unmarked) [Compound I-13]
3,< 100 nM,COCCC1C[C@@H](NC(=O)Nc2c(C)c(-c3ccc(OCc4ccccc4)nc3)nn2-c2ccccc2)[C@H](c2ccccc2)O1 (some centres unmarked) [Compound I-14]
4,< 100 nM,COCCC1C[C@@H](NC(=O)Nc2c(C)c(-c3ccc(C(=O)O)cc3)nn2-c2ccccc2)[C@H](c2ccccc2)O1 (some centres unmarked) [Compound I-15]
5,< 100 nM,COCCC1C[C@@H](NC(=O)Nc2c(C)c(-c3cnn(C)c3)nn2-c2ccccc2)[C@H](c2ccccc2)O1 (some centres unmarked) [Compound I-16]
6,> 1000 nM,COCCC1C[C@H](NC(=O)Nc2c(C)c(-c3cnn(C)c3)nn2-c2ccccc2)[C@@H](c2ccccc2)O1 (some centres unmarked) [Compound I-17]
7,< 100 nM,COCCC1C[C@@H](NC(=O)Nc2c(C)c(-c3ccc(=O)[nH]c3)nn2-c2ccccc2)[C@H](c2ccccc2)O1 (some centres unmarked) [Compound I-18]
8,< 100 nM,COCCC1C[C@@H](NC(=O)Nc2c(C)c(C3=CCN(C(=O)OC(C)(C)C)CC3)nn2-c2ccccc2)[C@H](c2ccccc2)O1 (some centres unmarked) [Compound I-20]
9,< 100 nM,COCCC1C[C@@H](NC(=O)Nc2c(C)c(C3=CCNCC3)nn2-c2ccccc2)[C@H](c2ccccc2)O1 (some centres unmarked) [Compound I-21]
10,> 1000 nM,COCC[C@H]1C[C@H](NC(=O)Nc2c(C)c(-c3cnn(C)c3)nn2-c2ccccc2)[C@@H](c2ccc(F)c(F)c2)O1 [Compound I-24]
11,> 1000 nM,COCCN1C[C@H](NC(=O)Nc2c(C)c(C3=CCN(C(C)=O)CC3)nn2-c2ccccc2)[C@@H](c2ccc(F)c(F)c2)O1 [Compound I-38]

# Same assay, conditions: Table 153, human TrkA inhibition; read-out: IC50
row,IC50,Compound
1,100 to 1000 nM,COCC[C@H]1C[C@H](NC(=O)Nc2c(C)c(C3=CCN(C(=O)CO)CC3)nn2-c2ccccc2)[C@@H](c2ccc(F)c(F)c2)O1 [Compound I-58]
2,< 100 nM,COCC[C@@H]1C[C@@H](NC(=O)Nc2c(C)c(C3=CCN(C(=O)CO)CC3)nn2-c2ccccc2)[C@H](c2ccc(F)c(F)c2)O1 [Compound I-59]
3,> 1000 nM,COCCN1C[C@H](NC(=O)Nc2c(C)c(OCC(C)(C)O)nn2-c2ccccc2)[C@@H](c2cnc(F)c(F)c2)O1 [Compound I-83]
4,< 100 nM,COCCC1C[C@@H](NC(=O)Nc2c(C)c(-c3cnc4c(cnn4C)c3)nn2-c2ccccc2)[C@H](c2ccccc2)O1 (some centres unmarked) [Compound I-98]
5,< 100 nM,COCCN1C[C@@H](NC(=O)Nc2c(C)c(-c3cnc(OC)c(C(=O)N[C@@H]4CCOC4)c3)nn2-c2ccccc2)[C@H](c2ccnc(F)c2)O1 [Compound I-113]
6,< 100 nM,COCCN1C[C@@H](NC(=O)Nc2c(C)c(-c3cnc4c(c3)c(CO)nn4C)nn2-c2ccccc2)[C@H](c2cnc(F)c(F)c2)O1 [Compound I-128]
7,> 1000 nM,CCOc1ncc(-c2nn(-c3ccccc3)c(NC(=O)N[C@H]3CN(CCOC)O[C@@H]3c3ccnc(F)c3)c2C)cn1 [Compound I-130]
8,< 100 nM,COCCN1C[C@@H](NC(=O)Nc2c(C)c(-c3cnc(N(C)C)nc3)nn2-c2ccccc2)[C@H](c2cnc(F)c(F)c2)O1 [Compound I-133]
9,< 100 nM,COCCN1C[C@@H](NC(=O)Nc2c(C)c(-c3cnc(C(=O)N[C@@H]4CCOC4)c(C)c3)nn2-c2ccccc2)[C@H](c2ccnc(F)c2)O1 [Compound I-172]

# Same assay, conditions: Table 154, human TrkA inhibition; read-out: IC50
row,IC50,Compound
1,< 100 nM,COCCN1C[C@@H](NC(=O)Nc2c(C)c(-c3cnc(OC)c(C(N)=O)c3)nn2-c2ccccc2)[C@H](c2cnc(F)c(F)c2)O1 [Compound I-180]
2,< 100 nM,COCCN1C[C@@H](NC(=O)Nc2c(C)c(-c3ccc(N=S(C)(C)=O)nc3)nn2-c2ccccc2)[C@H](c2ccc(F)c(F)c2)O1 [Compound I-186]
3,< 100 nM,CNC(=O)c1cc(-c2nn(-c3ccccc3)c(NC(=O)N[C@@H]3CN(CCOC)O[C@H]3c3ccnc(F)c3)c2C)cnc1OC [Compound I-191]
4,< 100 nM,COCCN1C[C@@H](NC(=O)Nc2c(C)c(-c3cnc(OC)c(C(=O)N[C@@H]4CCOC4)c3)nn2-c2ccccc2)[C@H](c2ccnc(F)c2)O1 [Compound I-192]
5,< 100 nM,COCCN1C[C@@H](NC(=O)Nc2c(C)c(-c3ccnc(C(=O)OC)c3)nn2-c2ccccc2)[C@H](c2cnc(F)c(F)c2)O1 [Compound I-197]
6,< 100 nM,COCCN1C[C@@H](NC(=O)Nc2c(C)c(-c3cnc(N4CC(O)C4)nc3)nn2-c2ccccc2)[C@H](c2ccc(F)c(F)c2)O1 [Compound I-209]
7,< 100 nM,COCCN1C[C@@H](NC(=O)Nc2c(C)c(-c3cnc(N4CC(O)C4)nc3)nn2-c2ccccc2)[C@H](c2cnc(F)c(F)c2)O1 [Compound I-210]
8,< 100 nM,COCCN1C[C@@H](NC(=O)Nc2c(C)c(-c3ccnc(C(=O)O)c3)nn2-c2ccccc2)[C@H](c2cnc(F)c(F)c2)O1 [Compound I-213]
9,< 100 nM,COCCN1C[C@@H](NC(=O)Nc2c(C)c(-c3cnc4c(c3)c(=O)n(C)n4C)nn2-c2ccccc2)[C@H](c2ccc(F)c(F)c2)O1 [Compound I-216]
10,< 100 nM,COCCN1C[C@@H](NC(=O)Nc2c(C)c(-c3cnc4c(c3)[nH]c(=O)n4C)nn2-c2ccccc2)[C@H](c2ccc(F)c(F)c2)O1 [Compound I-218]
11,< 100 nM,COCCN1C[C@@H](NC(=O)Nc2c(C)c(-c3cnc4c(c3)nc(C(N)=O)n4C)nn2-c2ccccc2)[C@H](c2ccc(F)c(F)c2)O1 [Compound I-221]
12,< 100 nM,COCCN1C[C@@H](NC(=O)Nc2c(C)c(-c3cnc4c(c3)nc(C#N)n4C)nn2-c2ccccc2)[C@H](c2ccc(F)c(F)c2)O1 [Compound I-222]

# Same assay, conditions: Table 156, human TrkA inhibition; read-out: IC50
row,IC50,Compound
1,< 100 nM,"COCCN1C[C@@H](NC(=O)Nc2c(C)c(OCC3CN(C(C)=O)CCO3)nn2-c2ccccc2)[C@H](c2ccc(F)c(F)c2)O1 (single isomer, unassigned) [Compound I-577]"
2,< 100 nM,"COCCN1C[C@@H](NC(=O)Nc2c(C)c(OCC3CN(C(C)=O)CCO3)nn2-c2ccccc2)[C@H](c2ccc(F)c(F)c2)O1 (single isomer, unassigned) [Compound I-578]"
3,< 100 nM,"COCCN1C[C@@H](NC(=O)Nc2c(C)c(OCC3CN(C)CCO3)nn2-c2ccccc2)[C@H](c2ccc(F)c(F)c2)O1 (single isomer, unassigned) [Compound I-579]"

# Same assay, conditions: human TrkA 1 nmol/L, ATP 500 μmol/L, 120 min at 37° C.; read-out: IC50 values (TrkA phosphorylation inhibition)
row,IC50,Compound
1,2.9 nM,COCC[C@@H]1C[C@@H](NC(=O)Nc2c(C)c(-c3cnn(C)c3)nn2-c2ccccc2)[C@H](c2ccc(F)c(F)c2)O1 [Compound I-25]
2,0.48 nM,COCCN1C[C@@H](NC(=O)Nc2c(C)c(C3=CCN(C(C)=O)CC3)nn2-c2ccccc2)[C@H](c2ccc(F)c(F)c2)O1 [Compound I-39]
3,0.92 nM,COCCN1C[C@@H](NC(=O)Nc2c(C)c(-c3cnc4c(cnn4C)c3)nn2-c2ccccc2)[C@H](c2ccnc(F)c2)O1 [Compound I-65]
4,22 nM,COCCN1C[C@@H](NC(=O)Nc2c(C)c(OCC(C)(C)O)nn2-c2ccccc2)[C@H](c2cnc(F)c(F)c2)O1 [Compound I-82]
5,0.52 nM,CNc1ncc(-c2nn(-c3ccccc3)c(NC(=O)N[C@@H]3CN(CCOC)O[C@H]3c3cnc(F)c(F)c3)c2C)cn1 [Compound I-135]
6,1.5 nM,COCCN1C[C@@H](NC(=O)Nc2c(C)c(-c3cnc(OC)nc3)nn2-c2ccccc2)[C@H](c2cnc(F)c(F)c2)O1 [Compound I-211]
